We go through three molecules from patent US20260234131A1, “THERAPEUTIC ALKALOID COMPOUNDS” (Sensorium Therapeutics, Inc., priority 2023, published 2026).

SMILES strings stand for the structures. Where only a bound is given, the exact number is not on record here.

For one data set, the target named is T1, SERT (Homo sapiens, UniProt P31645).
T1 construct: expressed in transfected cells
Description: SERT inhibition assay (Neurotransmitter Transportation Fluorescence assay, stable 5HTT cells). In kind it is cell-based. To be noted: for IC50 ratio to (−) mesembrine: SERT assay IC50 relative to (−) mesembrine; for IC50: stable 5HTT cells, 30 minutes at 37° C., fluorescence uptake kit, read-out: SERT Assay Potency Range. The method, then: SERT inhibition can be measured using a Neruotransmitter Transportation Fluorescence assay. Briefly, stable 5HTT cells were prepared in a 384 microwell plate. Compounds were prepared by in assay buffer (20 mM HEPES, 0.1% BSA). The compounds were added to the plated cells and incubated for 30 minutes at 37° C. 25 μL of dye solution (Molecular Devices Neurotransmitter Transporter Uptake Assay Kit) is added per well and incubated for 30 minutes at 37° C. The plates are then read on a plate reader.

For data set [1] the following is noted: pharmacokinetics described for (−) mesembrine; species not given; cited from earlier work.

T1 sequence (P31645 whole entry, species assumed): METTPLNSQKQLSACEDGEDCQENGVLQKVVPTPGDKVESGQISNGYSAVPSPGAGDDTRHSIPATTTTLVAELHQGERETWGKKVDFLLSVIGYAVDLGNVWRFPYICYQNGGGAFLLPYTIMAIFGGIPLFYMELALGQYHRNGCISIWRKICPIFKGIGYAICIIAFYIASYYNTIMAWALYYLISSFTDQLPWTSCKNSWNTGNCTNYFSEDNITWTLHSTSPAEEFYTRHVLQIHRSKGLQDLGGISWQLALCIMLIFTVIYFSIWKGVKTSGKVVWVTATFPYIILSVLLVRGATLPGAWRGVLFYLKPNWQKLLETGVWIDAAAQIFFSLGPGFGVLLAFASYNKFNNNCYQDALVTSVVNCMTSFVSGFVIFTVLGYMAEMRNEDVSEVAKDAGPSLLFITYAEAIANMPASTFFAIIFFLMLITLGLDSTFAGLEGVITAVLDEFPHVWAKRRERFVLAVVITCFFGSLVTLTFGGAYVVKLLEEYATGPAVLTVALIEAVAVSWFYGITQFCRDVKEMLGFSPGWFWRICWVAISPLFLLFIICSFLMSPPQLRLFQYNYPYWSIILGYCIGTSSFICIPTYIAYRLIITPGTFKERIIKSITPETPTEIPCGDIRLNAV

For the molecule `CN1CC[C@]2(c3ccc4c(c3)OC(F)(F)O4)CCC(=O)C[C@H]12` (single isomer, unassigned) [Compound 232], on SERT, the “IC50 ratio to (−) mesembrine” value is <5 and the IC50 was < 50 nM.

For `CN1CC[C@@]2(c3ccc4c(c3)OC(F)(F)O4)CCC(=O)C[C@@H]12` (single isomer, unassigned) [Compound 233], on SERT, the “IC50 ratio to (−) mesembrine” value was ≥100 and the IC50 lay within 500 to 1500 nM.

`COc1ccc([C@@]23CCC(=O)C[C@@H]2N(C)CC3)cc1OC` [Mesembrine]: in data set [1], the half-life in plasma entry is “less than 2 hours”.
